The values below are quoted from earlier work in patent US6620433B2, “Dispersible and soluble galenic paracetamol formulation, method for its preparation and its applications” (Laboratorios Belmac, S.A., priority 2000, dated 2003).

Data set [1] has as its system mice. The settings on record: interperitoneal administration.

On to `CC(=O)Nc1ccc(O)cc1` [Paracetamol, N-(4-hydroxyphenyl) acetamide], for which the “solubility in cold water” value (cold water) is given as “barely soluble”. Also, under “ether”, the solubility in ether result is reported as “barely soluble”. Besides, the “solubility in methanol, ethanol, dimethylformamide, ethylene dichloride, acetone and ethyl acetate” value (organic solvents) is “soluble”. Further, the “solubility in petroleum ether, pentane and benzene” value (petroleum ether, pentane, benzene) was “practically insoluble”. Moreover, the LD50 in mice in data set [1] was 500 mg/kg.
